Counter-ions that a name gives are not always drawn. Like-named read-outs stand apart in the source and are kept apart here.
Experiments:
[1] = rats, cited from earlier work
rat ileum = test: In vitro mucosal-to-serosal vancomycin transport, modified Ussing chambers, ileum; format: in vitro ADME; details: 5 mg/ml vancomycin in HEPES buffer
Text: (§1) We investigated regional variation in permeation of vancomycin (VCM) across various segments of rat intestine and colon in vitro by mounting isolated segments of rat intestine and colon between horizontal modified Ussing chambers. The effects of drug concentration and of addition of a p-glycoprotein inhibitor or permeation enhancer(s) as formulation additives on VCM permeation were also studied in vitro using segments of rat jejunum.
(§2) Methods: A modified Ussing system (Easy mount Ussing system, Physiological Instruments Inc., CA, Item # EM-CSYS-8) with eight sets of chambers was used for all in vitro studies; each set consisted of two parallel diffusion chambers, a heating block for temperature control, needle valves for gas flow adjustment and gas mixing, and Ag/AgCl voltage and current electrodes for measuring transepithelial voltage and for passing current.
(§3) Harvesting of required small intestinal or colon segments of a male rat was performed using experimental procedures described in the literature (Gotoh et al., J Biomol Screen (2005) 10:517-23). The harvested segments of small intestine or colon were mounted on sliders placed between the two horizontal chambers of a modified Ussing system.
(§4) VCM was dissolved in HEPES buffer pH 7.4 (Table 1) previously saturated with 100% O2 or HEPES buffer containing additives selected from permeation enhancer(s) and/or an efflux transport inhibitor (Table 2) to obtain predetermined concentrations of drug and additive(s).
(§5) Drug transport across epithelial membranes of harvested rat small intestine and colon segments, in mucosal-to-serosal (M-to-S) direction, was studied using modified Ussing Chambers. Aliquots of HEPES buffer (5 ml) were initially added to both the mucosal and serosal chambers and allowed to equilibrate for 20 minutes. The HEPES buffer in the mucosal chamber was replaced by a study sample containing VCM alone or VCM and selected additive(s) in HEPES buffer, e.g., 5 mg/mL of VCM dissolved in HEPES buffer containing 10% w/w Labrasol®. Aliquots of 0.5 mL buffer solutions were removed periodically from serosal chambers, and replaced with equal volumes of fresh warm (37±2° C.) HEPES buffer previously saturated with 100% O2. To study the effect of additives in the serosal chamber (i.e., quinidine and sodium decanoate), HEPES buffer containing the selected additive was placed in the serosal chamber and replaced with the same buffer composition during sampling.
(§6) Changes in transepithelial short-circuit current (in micro-Amps) and membrane resistance (in Ohms) as a function of time were monitored continuously during in vitro studies to serve as indicators of tissue viability and drug permeability, respectively. The buffer samples from the receptor chambers were analyzed for VCM content on a high pressure liquid chromatograph (HPLC; Hewlett Packard Model 1100 series).
(§7) The analysis of VCM samples was performed using a reverse phase gradient HPLC method, with a Hypersil BDS C18 column, 5 μm, 150×4.6 mm., mobile phase consisting of 5 mM potassium phosphate monobasic in water (pH 3) as solvent A and acetonitrile as solvent B at a flow rate of 1 ml/min (Farin et al., J Pharm Biomed Anal (1998) 18:367-72). The eluant was monitored by a UV/diode array detector at 280 nm.
(§8) To compare data obtained from different in vitro experiments, the apparent permeability coefficients were calculated using the equation: […]
(§9) Where dQ/dt is the linear appearance rate of mass in receiver compartment, C0 is the initial solute concentration in donor compartment, and A is the surface area (Luo et al., Drug Metab Dispos (2002) 30:763-70).

[2] = as above; format: in vitro ADME, rat; details: male, rat, pH 7.4, 5 mg/ml, HEPES buffer alone
Text: as §1, §2, §3, §4, §5, §6, §7, §8, §9

[3] = cited from earlier work
[4] = In vitro mucosal-to-serosal vancomycin transport, modified Ussing chambers, duodenum; format: in vitro ADME, rat; details: male, rat, pH 7.4, 5 mg/ml, HEPES buffer alone
Text: as §1, §2, §3, §4, §5, §6, §7, §8, §9

rat duodenum = test: as above; format: in vitro ADME; details: 5 mg/ml vancomycin in HEPES buffer
Text: as §1, §2, §3, §4, §5, §6, §7, §8, §9

[5] = In vitro mucosal-to-serosal vancomycin transport, modified Ussing chambers, colon; format: in vitro ADME, rat; details: male, rat, pH 7.4, 5 mg/ml, HEPES buffer alone
Text: as §1, §2, §3, §4, §5, §6, §7, §8, §9

rat colon = test: as above; format: in vitro ADME; details: 5 mg/ml vancomycin in HEPES buffer
Text: as §1, §2, §3, §4, §5, §6, §7, §8, §9

CN[C@H](CC(C)C)C(=O)N[C@H]1C(=O)N[C@@H](CC(N)=O)C(=O)N[C@H]2C(=O)N[C@H]3C(=O)N[C@H](C(=O)N[C@H](C(=O)O)c4cc(O)cc(O)c4-c4cc3ccc4O)[C@H](O)c3ccc(c(Cl)c3)Oc3cc2cc(c3O[C@@H]2O[C@H](CO)[C@@H](O)[C@H](O)[C@H]2O[C@H]2C[C@](C)(N)[C@H](O)[C@H](C)O2)Oc2ccc(cc2Cl)[C@H]1O [Vancomycin hydrochloride]
absolute bioavailability ([1]; oral administration of a water-in-oil-in-water (w/o/w) emulsion, VCM in inner aqueous phase): About 30% | absolute bioavailability ([1]; oral, without any added absorption enhancer or enzyme inhibitor): less than 5% | Ave. Cumulative Amt VCM Released (rat ileum; 0.5 hr): 0.00 ± 0.00 µg | Ave. Cumulative Amt VCM Released (rat ileum; 1.0 hr): 0.00 ± 0.00 µg | Ave. Cumulative Amt VCM Released (rat ileum; 1.5 hr): 2.55 ± 0.67 µg | Ave. Cumulative Amt VCM Released (rat ileum; 2.0 hr): 4.31 ± 1.17 µg | Ave. Cumulative Amt VCM Released (rat ileum; 2.5 hr): 6.33 ± 1.66 µg | Papp at 2.5 hr, 5 mg/ml [2]: 0.38 ± 0.05 ×10⁻⁶ cm/s | solubility in water [3]: soluble in water | Papp at 2.5 hr, 5 mg/ml [4]: 0.2 ± 0.05 ×10⁻⁶ cm/s | Ave. Cumulative Amt VCM Released (rat duodenum; 0.5 hr): 0.00 ± 0.00 µg | Ave. Cumulative Amt VCM Released (rat duodenum; 1.0 hr): 0.00 ± 0.00 µg | Ave. Cumulative Amt VCM Released (rat duodenum; 1.5 hr): 0.40 ± 0.80 µg | Ave. Cumulative Amt VCM Released (rat duodenum; 2.0 hr): 2.08 ± 0.87 µg | Ave. Cumulative Amt VCM Released (rat duodenum; 2.5 hr): 3.51 ± 1.34 µg | Papp at 2.5 hr, 5 mg/ml [5]: 0.41 ± 0.07 ×10⁻⁶ cm/s | Ave. Cumulative Amt VCM Released (rat colon; 0.5 hr): 0.00 ± 0.00 µg | Ave. Cumulative Amt VCM Released (rat colon; 1.0 hr): 0.00 ± 0.00 µg | Ave. Cumulative Amt VCM Released (rat colon; 1.5 hr): 1.93 ± 0.38 µg | Ave. Cumulative Amt VCM Released (rat colon; 2.0 hr): 4.20 ± 0.99 µg | Ave. Cumulative Amt VCM Released (rat colon; 2.5 hr): 7.15 ± 1.82 µg

Source: US20090111736A1, “Orally-Absorbed Solid Dose Formulation for Vancomycin” (SRI International, priority 2007, published 2009)
